Assay results published in patent US5677282A (Proscript, Inc., priority 1995, dated 1997).
pKi: −log10 of the molar value. Several values for one entry are separate records, joined by “and”; a condition that tells them apart may be missing. Equal entries are not always repeated.

Experiments:
[1] = molecular target: human neutrophil collagenase (Homo sapiens, UniProt P22894); experiment: Assay of human neutrophil collagenase inhibition activity; assay type: biochemical; settings: human neutrophil collagenase 2 nM, H-150 buffer pH 7.4; read-out: Ki(app)
Sequence of human neutrophil collagenase (P22894 101-467): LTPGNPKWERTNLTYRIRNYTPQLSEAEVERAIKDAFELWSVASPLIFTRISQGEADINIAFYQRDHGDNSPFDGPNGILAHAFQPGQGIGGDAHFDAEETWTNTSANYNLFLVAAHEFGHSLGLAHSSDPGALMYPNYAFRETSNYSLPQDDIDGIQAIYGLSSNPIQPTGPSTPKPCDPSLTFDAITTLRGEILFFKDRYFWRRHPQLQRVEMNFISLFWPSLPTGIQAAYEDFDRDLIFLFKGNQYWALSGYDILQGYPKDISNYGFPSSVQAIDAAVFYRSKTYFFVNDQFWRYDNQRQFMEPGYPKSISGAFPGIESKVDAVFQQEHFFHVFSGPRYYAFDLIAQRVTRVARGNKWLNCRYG
In short: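 Human neutrophil collagenase (2 nM) in HEPES/NaCl/CaCl2 buffer, pH 7.4, was followed by fluorescence of coumarin peptide substrate hydrolysis over about 100-200 s. Inhibitor was added stepwise until 30-70% rate reduction. Ki was calculated assuming simple competitive inhibition with substrate far below Km.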

[2] = system: bovine cartilage explants; experiment: Bovine cartilage explant assay (35S-GAG release, rhIL-1α stimulated); assay type: cell-based; settings: Bos taurus, rhIL-1α 5 ng/mL, 3-4 days culture, read-out: % inhibition (concentration [μM]) of cartilage degradation
Source text: A tissue culture assay was used to measure the ability of the compounds of the present invention to slow the degradation of the extracellular matrix by metalloproteinases. This assay measured the amount of ^35 S-glycosaminoglycan (^35 S-GAG) released from labeled bovine cartilage explants.
Knee joints from a 1 to 3 week old calf were obtained immediately after sacrifice from the Abattoir and then transported on ice. The intact joints were washed well with tap water and soaked in 50% (v/v) Povidine iodine solution, obtained from Burre National, Inc., Baltimore, Md. All subsequent steps were performed in a laminar flow tissue culture hood using standard sterile technique. The joint was immobilized in a shank holder and the joint capsule was cut open to expose the articular cartilage. Cartilage explant plugs, approximately 15 mg wet weight, were removed from the flat articulating surfaces in the lower-most region of the knee joint using a sterile steel cork-borer and collected in a 250 mL roller bottle containing about 100 mL fresh Delbecco's minimum essential medium (DMEM), obtained from Gibco BRC, Life Technologies, Gaithersburg, Md., containing 4.5 g/l (D)-glucose and (L)-glutamine, without sodium pyruvate. The fresh media also contained enough Hepes buffer and sodium bicarbonate such that the pH was about 7.4. The media was then further supplemented just before use with 100 units Penicillin, 100 μg Streptomycin, and 50 μg (L)-ascorbic acid per mL of medium.
Once collected, the explant plugs were washed four times with 50 mL fresh DMEM. The plugs were then placed in the incubator for a minimum of 1 hour to equilibrate, before proceeding to make disks from the articulating surface of each plug. A 1 mm thick disk was sliced from individual plugs from the end that was the articulating surface of the joint. The plug was held steady in the sterile template (4 mm diameter×1.5 mm deep) using sterile forceps. A scalpel blade was used to carefully slice off the disk. Only the superficial articulating surface responded well in culture.
Individual disks obtained were transferred to a tissue culture flask containing about 100 mL fresh media. The flask containing the disks was placed in an incubator at 37° C. (with 5% CO2, 95% air) and allowed to equilibrate overnight and at least one additional day before labeling. When ready to label, the old media was replaced with 50 mL fresh media containing about 500 μCi ^35 S-Sodium Sulfate. The plugs were labeled in bulk for about 48 hours. The next morning, the "hot" media was removed and replaced with fresh "cold" media. The disks were again allowed to equilibrate overnight before being used for actual experiments.
The media in which the disks were stored was changed immediately prior to performing the assay. The disks were then returned to the incubator until the test media and the two control media had been prepared. The test media consisted of the desired concentration of a compound being tested for its ability to inhibit extracellular matrix degradation and concomitant recombinant human Interleukin rhIL-1α (5 ng/mL) in fresh DMEM solution. The control media were identical to the test media, except that the first control media lacked rhIL-1α and the second control media lacked the test compound. 250 μL of each of the test and control media were transferred to separate 96-well TC plates. Flamed forceps were used to transfer a disk from the incubator to each 96-well TC plates that had been filled with either the test media or one of the two control media.
The TC plates were then placed in the incubator and cultured for 3-4 days (initial incubation with rhIL-1α alpha takes at least 3 days to stimulate endogenous metalloproteinases). A 50 μL aliquot of media from each TC plate was saved and counted. The rest of the media was removed with a suction device.
The cartilage disks from each TC plate were also saved for counting. […]

92 kD gelatinase = 92 kD gelatinase (Homo sapiens, UniProt P14780); experiment: Assay of 92 KD gelatinase inhibition activity; assay type: biochemical; settings: 92KD gelatinase 25 pM, H-150 buffer pH 7.4; read-out: Ki(app)
Sequence of 92 kD gelatinase (P14780 107-707): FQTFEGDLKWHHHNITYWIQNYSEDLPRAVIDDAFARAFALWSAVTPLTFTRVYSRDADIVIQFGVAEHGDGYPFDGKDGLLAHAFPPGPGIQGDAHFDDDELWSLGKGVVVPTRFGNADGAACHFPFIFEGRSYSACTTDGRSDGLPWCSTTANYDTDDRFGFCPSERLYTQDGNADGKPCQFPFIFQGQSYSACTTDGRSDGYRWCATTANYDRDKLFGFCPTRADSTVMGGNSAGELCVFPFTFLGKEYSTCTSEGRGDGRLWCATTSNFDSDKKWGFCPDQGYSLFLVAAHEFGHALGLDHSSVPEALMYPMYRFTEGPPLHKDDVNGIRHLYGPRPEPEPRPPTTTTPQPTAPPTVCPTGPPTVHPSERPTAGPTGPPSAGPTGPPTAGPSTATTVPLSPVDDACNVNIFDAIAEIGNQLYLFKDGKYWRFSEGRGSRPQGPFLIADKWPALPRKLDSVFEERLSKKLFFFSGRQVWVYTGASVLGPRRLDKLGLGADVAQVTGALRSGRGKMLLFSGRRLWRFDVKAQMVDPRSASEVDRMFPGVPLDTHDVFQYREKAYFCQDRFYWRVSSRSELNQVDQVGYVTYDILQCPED
In short: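 Pro-92 kD gelatinase activated with 1 mM p-aminophenyl mercuric acetate, 24 h at 37 °C. Assay: 25 pM enzyme in H-150 buffer pH 7.4 with coumarin peptide substrate; hydrolysis rate followed by fluorescence over 100-200 s. Inhibitor titrated in until 30-70% inhibition; Ki calculated assuming simple competitive inhibition with substrate well below Km.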

| pKi (92 kD gelatinase) | Structure (SMILES) | pKi [1] | inhibition at 25 µM ([2]; 25 μM compound) | inhibition at 50 µM ([2]; 50 μM compound) | inhibition at 10 µM ([2]; 10 μM compound) |
| --- | --- | --- | --- | --- | --- |
| – | O=C(N[C@@H](Cc1ccc(OCc2ccccc2)cc1)C(=O)N[C@H](C(=O)Nc1n[nH]c(=S)s1)c1ccccc1)OCc1ccccc1 | 8.80 | 20% | – | – |
| 8.64 | CC(C)C[C@H](NC(=O)[C@H](Cc1ccccc1)NC(=O)OCc1ccccc1)C(=O)Nc1n[nH]c(=S)s1 [5-(N-benzyloxycarbonyl-phenylalanyl-leucylamino)-1,3,4-thiadiazole-2-thione] | – | – | 33% | – |
| 8.82 | CC(C)[C@H](NC(=O)[C@H](Cc1ccccc1)NC(=O)OCc1ccccc1)C(=O)Nc1n[nH]c(=S)s1 [5-(N-benzyloxycarbonyl-phenylalanyl-valylamino)-1,3,4-thiadiazole-2-thione] | 8.32 and 8.11 | – | – | 40% |
